Data reported in patent US9644175B2, “Antimicrobial amino-salicylic acid derivatives” (BASF SE, priority 2009, dated 2017).

Tests used:
Type in all cases: cell-based
[1] = tested on: Staphylococcus aureus ATCC 6538; test: Suspension test, bactericidal activity (modified EN 1040); conditions: room temperature, start about 10^7 cfu/ml
Procedure: (§1) The following examples illustrate the invention. Unless indicated otherwise, percentages refer to percent by weight (b.w.), room temperature denotes a temperature from the range 20-24° C. The determination of bactericidal activity and fungicidal activity in surfactants or shampoo formulations of the present invention is measured in a suspension test according to trivial modifications of the European Standard methods EN 1040 and EN 1275, respectively. The bactericidal activity of the compounds of the present invention is measured in a suspension test (trivial modification of the European Standard method EN 1040). Substances listed in Table 1 are tested against gram positive and gram negative bacteria. The compound of the invention is dissolved in ethanol resulting in a 1% b.w. stock solution. The cell densities of the bacterial suspensions used as inoculums for the suspension test are as follows (cfu=colony forming units): [table] For the suspension tests, an appropriate concentration of the test compound is mixed with a bacterial suspension resulting in a final cell count in the mixture of about 10^7 cfu/ml. These test mixtures are incubated at room temperature (22° C.+/−2° C.) and aliquots of 1 ml test mixture containing the test bacteria are taken after set contact times for determination of the residual cell count of test bacteria. For inactivation of the antimicrobial compounds, the 1 ml aliquots are diluted in 1:10 steps with an aqueous solution containing 10% of Tween 80 (a polyethoxylated sorbitan ester surfactant), 3% lecithin, 0.1% histidine and 0.5% sodium thiosulfate.

[2] = tested on: Pseudomonas aeruginosa ATCC15442; test: as above; conditions: room temperature, start about 10^7 cfu/ml
Procedure: as §1

[3] = tested on: Escherichia coli ATCC 10536; test: as above; conditions: room temperature, start about 10^7 cfu/ml
Procedure: as §1

[4] = tested on: Aspergillus niger ATCC 6275; test: Suspension test of compound in surfactants and shampoo; conditions: 7 days, start 10^5 cfu/ml
Procedure: (§2) The following examples illustrate the invention. Unless indicated otherwise, percentages refer to percent by weight (b.w.), room temperature denotes a temperature from the range 20-24° C. The determination of bactericidal activity and fungicidal activity in surfactants or shampoo formulations of the present invention is measured in a suspension test according to trivial modifications of the European Standard methods EN 1040 and EN 1275, respectively. The fungicidal activity of the compounds of the present invention is measured in a suspension test (trivial modification of the European Standard method EN 1275). The compound of the invention is incorporated in an anionic surfactant, for example sodium laureth sulphate (Epicol ESB 70), or a non-ionic surfactant such as decyl glucoside (Plantacare 2000UP), or an amphoteric surfactant, for example cocamidopropyl betaine (Tego Betain F50). Each of the surfactants is tested at 10% a.i. Furthermore, the 5-amino-salicylic acid derivatives of the invention are incorporated in a typical shampoo formulation with the following composition: • 0.01 to 5% by weight of 5 amino-salicylic acid derivative, • 7.0% by weight sodium laureth-2-sulfate, • 2.5% by weight decyl glucoside • 4.0% by weight cocamidopropyl betaine, • 1.0% by weight NaCl and • water ad 100%. • pH 6 is adjusted with NaOH. The surfactant solutions and shampoo formulations tested contain 1% b.w. of the compound of the invention. The cell densities of the bacterial suspensions used as inoculums for the suspension tests are as follows (cfu=colony forming units): [table] The cell density in the test is adjusted to 10^5 cfu/ml. These test mixtures are incubated at room temperature (22° C.+/−2° C.) and aliquots of 1 ml test mixture are taken after set contact times for determination of the residual cell count. For inactivation of the antimicrobial compounds, the 1 ml aliquots are diluted in 1:10 steps with an aqueous solution containing 10% Tween 80 (a polyethoxylated sorbitan ester surfactant), 3% lecithin, 0.1% histidine and 0.5% sodium thiosulfate.

[5] = tested on: Candida albicans AJCC 10231; test: as above; conditions: 24 h, start 10^5 cfu/ml
Procedure: as §2

[6] = tested on: Escherichia coli ATCC 10536; test: as above; conditions: 24 h, start 10^5 cfu/ml
Procedure: as §2, with “respectively.” for “respectively. The fungicidal activity of the compounds of the present invention is measured in a suspension test (trivial modification of the European Standard method EN 1275).”

[7] = tested on: Staphylococcus aureus ATCC 6538; test: as above; conditions: 24 h, start 10^5 cfu/ml
Procedure: as §2, with “respectively.” for “respectively. The fungicidal activity of the compounds of the present invention is measured in a suspension test (trivial modification of the European Standard method EN 1275).”

[8] = tested on: Pseudomonas aeruginosa ATCC 15442; test: as above; conditions: 24 h, start 10^5 cfu/ml
Procedure: as §2, with “respectively.” for “respectively. The fungicidal activity of the compounds of the present invention is measured in a suspension test (trivial modification of the European Standard method EN 1275).”

[9] = tested on: Candida albicans ATCC 10231; test: Suspension test, fungicidal activity (modified EN 1275), Table A; conditions: contact time 24 h
Procedure: The following examples illustrate the invention. Unless indicated otherwise, percentages refer to percent by weight (b.w.), room temperature denotes a temperature from the range 20-24° C. The determination of bactericidal activity and fungicidal activity in surfactants or shampoo formulations of the present invention is measured in a suspension test according to trivial modifications of the European Standard methods EN 1040 and EN 1275, respectively. For the suspension tests, an appropriate concentration of the test compound is mixed with a bacterial suspension resulting in a final cell count in the mixture of about 10^7 cfu/ml. These test mixtures are incubated at room temperature (22° C.+/−2° C.) and aliquots of 1 ml test mixture containing the test bacteria are taken after set contact times for determination of the residual cell count of test bacteria. For inactivation of the antimicrobial compounds, the 1 ml aliquots are diluted in 1:10 steps with an aqueous solution containing 10% of Tween 80 (a polyethoxylated sorbitan ester surfactant), 3% lecithin, 0.1% histidine and 0.5% sodium thiosulfate. The fungicidal activity of the compounds of the present invention is measured in a suspension test (trivial modification of the European Standard method EN 1275). The compound of the invention is dissolved in ethanol resulting in a 1% b.w. solution of the compound. […]

[10] = 1% b.w. compound in amphoteric surfactant (cocamidopropyl betaine, 10% a.i.)
[11] = 1% b.w. compound in anionic surfactant (sodium laureth sulfate, 10% a.i.)
[12] = 1% b.w. compound in non-ionic surfactant (decyl glucoside, 10% a.i.)
[13] = 1% b.w. compound in shampoo formulation, pH 6

CCCCCCCCCCCC(=O)Nc1ccc(O)c(C(=O)O)c1 [compound 597]
log reduction ([1]; contact time 24 h): >5 log | residual cell count ([1]; contact time 24 h): 1.6 × 10^3 cfu/ml

O=C(O)c1cc(NC(=O)C2CCCCC2)ccc1O [compound 601, 5-cyclohexanoylamino-salicylic acid]
log reduction ([2]; contact time 24 h): 4.8 log | residual cell count ([2]; contact time 24 h): 6.1 × 10^2 cfu/ml | log reduction ([3]; contact time 24 h): 4.3 log | residual cell count ([3]; contact time 24 h): 9.1 × 10^2 cfu/ml | log reduction ([1]; contact time 24 h): >5 log | residual cell count ([1]; contact time 24 h): <100 cfu/ml

CCCCCC(=O)Nc1ccc(O)c(C(=O)O)c1 [compound 596, 5-hexanoylamino-salicylic acid]
log reduction [4, 10]: 2.3 log | residual cell count [4, 10]: 1.2 × 10^3 cfu/ml | log reduction [4, 11]: 2.1 log | residual cell count [4, 11]: 1.7 × 10^3 cfu/ml | log reduction [4, 12]: 1.1 log | residual cell count [4, 12]: 1.9 × 10^4 cfu/ml | log reduction [5, 10]: >3 log | residual cell count [5, 10]: <100 cfu/ml | log reduction [5, 11]: 1.2 log | residual cell count [5, 11]: 1.4 × 10^4 cfu/ml | log reduction [5, 12]: >3 log | residual cell count [5, 12]: <100 cfu/ml | log reduction [6, 10]: >3 log | residual cell count [6, 10]: <100 cfu/ml | log reduction [6, 11]: >3 log | residual cell count [6, 11]: <100 cfu/ml | log reduction [6, 12]: >3 log | residual cell count [6, 12]: <100 cfu/ml | log reduction [6, 13]: >3 log | residual cell count [6, 13]: <100 cfu/ml | log reduction [7, 10]: >3 log | residual cell count [7, 10]: <100 cfu/ml | log reduction [7, 11]: >3 log | residual cell count [7, 11]: <100 cfu/ml | log reduction [7, 12]: >3 log | residual cell count [7, 12]: <100 cfu/ml | log reduction [7, 13]: >3 log | residual cell count [7, 13]: <100 cfu/ml | log reduction [8, 10]: >3 log | residual cell count [8, 10]: <100 cfu/ml | log reduction [8, 11]: >3 log | residual cell count [8, 11]: <100 cfu/ml | log reduction [8, 12]: >3 log | residual cell count [8, 12]: <100 cfu/ml | log reduction ([2]; contact time 30 min): >5 log | residual cell count ([2]; contact time 30 min): <100 cfu/ml | log reduction ([3]; contact time 30 min): >5 log | residual cell count ([3]; contact time 30 min): <100 cfu/ml | log reduction ([1]; contact time 30 min): >5 log | residual cell count ([1]; contact time 30 min): <100 cfu/ml | log reduction [9]: >4 log | residual cell count [9]: <100 cfu/ml
